Results taken from ChEMBL document CHEMBL5465560, “Selectivity Literature for EUbOPEN Chemogenomic Library” (2024).
Each block holds one compound with its values, some of them ahead of it.

Assays:
[1] = molecular target: Phosphatidylinositol 3-kinase catalytic subunit type 3 (Homo sapiens, UniProt Q8NEB9); test: Selectivity interaction (ActivX KiNativ screen (kinase selectivity in THP-1 cell lysates)) EUB0000639a PIK3C3; assay type: subcellular; conditions: lysate
[2] = molecular target: T1, Serine/threonine-protein kinase ULK3 (Homo sapiens) (UniProt Q6PHR2); test: Selectivity interaction (ActivX KiNativ screen (kinase selectivity in THP-1 cell lysates)) EUB0000639a ULK3; assay type: subcellular; conditions: lysate, at 0.04 µM
T1 sequence (whole entry): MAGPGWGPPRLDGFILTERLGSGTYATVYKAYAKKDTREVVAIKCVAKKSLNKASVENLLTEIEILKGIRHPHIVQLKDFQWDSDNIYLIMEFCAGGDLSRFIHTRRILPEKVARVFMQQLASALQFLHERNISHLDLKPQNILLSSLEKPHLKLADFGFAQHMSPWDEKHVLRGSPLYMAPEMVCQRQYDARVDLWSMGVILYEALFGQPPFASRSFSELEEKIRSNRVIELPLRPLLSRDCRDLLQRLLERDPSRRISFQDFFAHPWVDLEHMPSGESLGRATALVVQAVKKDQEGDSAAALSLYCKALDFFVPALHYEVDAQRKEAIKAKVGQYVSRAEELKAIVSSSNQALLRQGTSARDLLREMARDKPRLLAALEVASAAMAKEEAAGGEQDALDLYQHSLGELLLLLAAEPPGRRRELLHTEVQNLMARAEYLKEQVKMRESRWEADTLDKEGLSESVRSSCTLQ

[3] = molecular target: Phosphatidylinositol 4,5-bisphosphate 3-kinase catalytic subunit gamma isoform (Homo sapiens) (UniProt P48736); test: Selectivity interaction (Kinase panel (literature)) EUB0001199aCl PIK3CG; conditions: at 1 µM
[4] = molecular target: MAP kinase-activated protein kinase 2 (Homo sapiens, UniProt P49137); test: Selectivity interaction (Kinase panel (Z-LYTE Assay)) EUB0001632a MAPKAPK2; conditions: at 10 µM
[5] = molecular target: Serine/threonine-protein kinase 38 (Homo sapiens) (UniProt Q15208); test: Selectivity interaction (KinomeScan (DiscoverX)) EUB0000229b STK38; conditions: at 10 µM
[6] = molecular target: T2, Phosphatidylinositol 3-kinase C2 domain-containing subunit gamma (Homo sapiens) (UniProt O75747); test: Selectivity interaction (KinomeScan (DiscoverX)) EUB0000045b PIK3C2G
T2 sequence (whole entry): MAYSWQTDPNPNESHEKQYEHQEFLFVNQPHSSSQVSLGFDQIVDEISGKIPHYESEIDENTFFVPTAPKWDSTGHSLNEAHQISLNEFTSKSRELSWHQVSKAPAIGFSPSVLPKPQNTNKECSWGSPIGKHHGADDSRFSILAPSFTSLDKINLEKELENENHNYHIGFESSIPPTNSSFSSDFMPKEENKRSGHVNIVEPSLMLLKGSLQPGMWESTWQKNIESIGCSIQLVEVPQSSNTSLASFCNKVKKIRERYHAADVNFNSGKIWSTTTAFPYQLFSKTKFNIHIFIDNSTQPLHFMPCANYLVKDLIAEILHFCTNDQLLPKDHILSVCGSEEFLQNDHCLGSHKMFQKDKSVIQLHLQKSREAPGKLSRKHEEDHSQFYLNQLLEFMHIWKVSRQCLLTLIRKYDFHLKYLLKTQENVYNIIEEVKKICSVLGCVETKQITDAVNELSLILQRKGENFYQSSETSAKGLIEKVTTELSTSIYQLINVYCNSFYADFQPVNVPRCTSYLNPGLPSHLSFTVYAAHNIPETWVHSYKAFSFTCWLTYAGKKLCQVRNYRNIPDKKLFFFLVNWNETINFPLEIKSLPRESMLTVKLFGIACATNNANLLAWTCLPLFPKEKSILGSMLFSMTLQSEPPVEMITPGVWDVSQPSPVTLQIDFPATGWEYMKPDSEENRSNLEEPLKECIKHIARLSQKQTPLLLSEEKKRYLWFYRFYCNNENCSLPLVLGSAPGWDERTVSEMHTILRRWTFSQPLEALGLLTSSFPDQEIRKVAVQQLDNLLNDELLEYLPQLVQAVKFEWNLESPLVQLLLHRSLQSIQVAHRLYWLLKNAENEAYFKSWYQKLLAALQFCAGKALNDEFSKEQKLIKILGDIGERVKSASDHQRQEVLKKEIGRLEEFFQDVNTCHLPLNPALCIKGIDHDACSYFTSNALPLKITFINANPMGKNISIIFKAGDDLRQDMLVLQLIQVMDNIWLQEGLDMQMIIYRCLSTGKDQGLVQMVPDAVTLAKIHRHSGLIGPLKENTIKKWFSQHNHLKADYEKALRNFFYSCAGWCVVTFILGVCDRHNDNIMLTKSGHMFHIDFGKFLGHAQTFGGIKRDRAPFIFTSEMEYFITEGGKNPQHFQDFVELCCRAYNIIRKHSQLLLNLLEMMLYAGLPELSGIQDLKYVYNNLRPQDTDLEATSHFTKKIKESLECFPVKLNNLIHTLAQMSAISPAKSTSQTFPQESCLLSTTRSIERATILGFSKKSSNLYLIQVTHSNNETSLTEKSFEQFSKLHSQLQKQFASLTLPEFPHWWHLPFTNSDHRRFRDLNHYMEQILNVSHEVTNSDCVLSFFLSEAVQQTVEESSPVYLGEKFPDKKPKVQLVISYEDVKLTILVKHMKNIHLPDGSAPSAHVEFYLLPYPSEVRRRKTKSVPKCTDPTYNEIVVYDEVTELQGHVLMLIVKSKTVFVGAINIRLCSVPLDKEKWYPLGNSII

[7] = molecular target: Serine/threonine-protein kinase 10 (Homo sapiens) (UniProt O94804); test: Selectivity interaction (KinomeScan (DiscoverX)) EUB0001619a STK10; conditions: at 1 µM
[8] = molecular target: T1, Serine/threonine-protein kinase ULK3 (Homo sapiens); test: Selectivity interaction (Kinase panel (DSF assay)) EUB0001559a ULK3
[9] = molecular target: Aurora kinase B (Homo sapiens, UniProt Q96GD4); test: Selectivity interaction (KinomeScan (DiscoverX)) EUB0000607a AURKB; conditions: at 10 µM
[10] = molecular target: Myosin light chain kinase, smooth muscle (Homo sapiens, UniProt Q15746); test: Selectivity interaction (KinomeScan (DiscoverX)) EUB0000666a MYLK; conditions: at 10 µM
Sequence of Myosin light chain kinase, smooth muscle (Q15746 whole entry): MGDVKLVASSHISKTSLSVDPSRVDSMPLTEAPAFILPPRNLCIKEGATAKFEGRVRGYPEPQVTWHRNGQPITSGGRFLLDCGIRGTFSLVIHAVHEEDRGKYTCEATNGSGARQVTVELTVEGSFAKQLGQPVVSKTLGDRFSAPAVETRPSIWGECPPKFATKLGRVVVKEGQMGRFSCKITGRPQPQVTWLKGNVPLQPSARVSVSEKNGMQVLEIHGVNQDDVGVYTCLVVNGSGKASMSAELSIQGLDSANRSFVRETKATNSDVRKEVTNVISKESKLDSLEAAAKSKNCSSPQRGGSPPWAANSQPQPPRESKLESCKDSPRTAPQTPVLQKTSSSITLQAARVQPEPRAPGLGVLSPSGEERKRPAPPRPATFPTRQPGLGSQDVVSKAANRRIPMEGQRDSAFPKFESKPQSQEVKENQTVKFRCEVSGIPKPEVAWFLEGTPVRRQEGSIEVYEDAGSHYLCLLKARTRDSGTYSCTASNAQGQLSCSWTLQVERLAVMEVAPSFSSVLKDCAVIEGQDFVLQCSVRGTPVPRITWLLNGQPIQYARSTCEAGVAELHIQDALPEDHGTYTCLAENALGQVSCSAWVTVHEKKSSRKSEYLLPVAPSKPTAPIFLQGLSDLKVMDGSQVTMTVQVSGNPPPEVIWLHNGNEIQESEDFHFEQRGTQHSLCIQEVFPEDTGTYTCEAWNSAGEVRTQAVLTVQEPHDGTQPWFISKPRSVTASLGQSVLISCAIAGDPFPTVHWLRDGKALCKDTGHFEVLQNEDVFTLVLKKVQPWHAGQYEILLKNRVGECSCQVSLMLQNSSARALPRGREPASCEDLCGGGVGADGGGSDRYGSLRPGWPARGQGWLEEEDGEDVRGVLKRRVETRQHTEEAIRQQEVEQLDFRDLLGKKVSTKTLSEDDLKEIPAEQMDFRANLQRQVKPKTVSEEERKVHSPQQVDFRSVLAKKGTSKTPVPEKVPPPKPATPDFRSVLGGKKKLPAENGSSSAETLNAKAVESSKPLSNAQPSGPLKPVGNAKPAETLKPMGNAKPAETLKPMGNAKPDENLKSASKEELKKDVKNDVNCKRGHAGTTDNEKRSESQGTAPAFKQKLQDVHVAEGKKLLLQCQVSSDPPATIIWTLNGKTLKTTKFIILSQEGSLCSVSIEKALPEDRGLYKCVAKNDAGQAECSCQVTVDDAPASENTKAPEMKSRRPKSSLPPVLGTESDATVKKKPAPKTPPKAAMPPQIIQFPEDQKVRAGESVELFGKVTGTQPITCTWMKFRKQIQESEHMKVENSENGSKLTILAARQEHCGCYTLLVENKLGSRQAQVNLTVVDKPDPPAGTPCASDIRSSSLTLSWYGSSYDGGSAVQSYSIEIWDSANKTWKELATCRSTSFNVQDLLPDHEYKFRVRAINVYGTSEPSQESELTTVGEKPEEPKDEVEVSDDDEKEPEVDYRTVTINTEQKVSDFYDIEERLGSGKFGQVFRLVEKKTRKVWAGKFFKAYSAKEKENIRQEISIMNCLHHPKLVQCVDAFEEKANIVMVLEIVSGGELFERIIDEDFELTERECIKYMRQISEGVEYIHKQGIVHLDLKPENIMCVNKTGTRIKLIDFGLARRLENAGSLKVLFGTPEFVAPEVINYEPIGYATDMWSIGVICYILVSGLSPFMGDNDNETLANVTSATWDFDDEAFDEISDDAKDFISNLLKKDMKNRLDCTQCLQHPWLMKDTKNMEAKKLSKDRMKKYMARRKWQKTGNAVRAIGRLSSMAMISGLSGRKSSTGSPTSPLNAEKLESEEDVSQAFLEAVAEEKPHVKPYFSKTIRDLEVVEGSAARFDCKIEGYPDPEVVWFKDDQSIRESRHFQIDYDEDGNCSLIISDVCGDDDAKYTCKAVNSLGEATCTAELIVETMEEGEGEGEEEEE

Sequence of Phosphatidylinositol 3-kinase catalytic subunit type 3 (Q8NEB9 whole entry): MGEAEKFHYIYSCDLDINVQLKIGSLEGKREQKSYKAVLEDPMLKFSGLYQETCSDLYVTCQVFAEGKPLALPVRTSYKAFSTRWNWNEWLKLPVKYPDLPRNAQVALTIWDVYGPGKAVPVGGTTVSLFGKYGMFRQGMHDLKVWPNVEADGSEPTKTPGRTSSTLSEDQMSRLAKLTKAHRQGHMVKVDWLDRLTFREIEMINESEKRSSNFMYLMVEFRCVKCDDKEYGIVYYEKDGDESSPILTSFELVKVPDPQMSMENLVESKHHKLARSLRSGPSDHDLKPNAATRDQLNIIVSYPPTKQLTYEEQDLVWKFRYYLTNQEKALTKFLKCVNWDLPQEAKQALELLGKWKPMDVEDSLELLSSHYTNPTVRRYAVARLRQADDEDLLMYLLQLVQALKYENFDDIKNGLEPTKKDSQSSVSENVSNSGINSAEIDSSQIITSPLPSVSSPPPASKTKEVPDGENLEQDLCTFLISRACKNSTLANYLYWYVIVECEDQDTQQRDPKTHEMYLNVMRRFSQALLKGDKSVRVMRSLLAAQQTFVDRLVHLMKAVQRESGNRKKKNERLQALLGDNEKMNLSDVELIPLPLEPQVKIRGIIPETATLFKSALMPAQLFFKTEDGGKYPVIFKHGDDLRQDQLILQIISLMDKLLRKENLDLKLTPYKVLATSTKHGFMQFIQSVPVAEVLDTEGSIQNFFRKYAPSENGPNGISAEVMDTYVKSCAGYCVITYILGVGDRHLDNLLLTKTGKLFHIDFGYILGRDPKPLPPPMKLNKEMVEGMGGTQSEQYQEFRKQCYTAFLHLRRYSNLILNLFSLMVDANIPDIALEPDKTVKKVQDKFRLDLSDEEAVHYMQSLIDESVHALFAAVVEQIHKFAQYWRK
Sequence of Phosphatidylinositol 4,5-bisphosphate 3-kinase catalytic subunit gamma isoform (Homo sapiens) (P48736 whole entry, looked up, canonical isoform): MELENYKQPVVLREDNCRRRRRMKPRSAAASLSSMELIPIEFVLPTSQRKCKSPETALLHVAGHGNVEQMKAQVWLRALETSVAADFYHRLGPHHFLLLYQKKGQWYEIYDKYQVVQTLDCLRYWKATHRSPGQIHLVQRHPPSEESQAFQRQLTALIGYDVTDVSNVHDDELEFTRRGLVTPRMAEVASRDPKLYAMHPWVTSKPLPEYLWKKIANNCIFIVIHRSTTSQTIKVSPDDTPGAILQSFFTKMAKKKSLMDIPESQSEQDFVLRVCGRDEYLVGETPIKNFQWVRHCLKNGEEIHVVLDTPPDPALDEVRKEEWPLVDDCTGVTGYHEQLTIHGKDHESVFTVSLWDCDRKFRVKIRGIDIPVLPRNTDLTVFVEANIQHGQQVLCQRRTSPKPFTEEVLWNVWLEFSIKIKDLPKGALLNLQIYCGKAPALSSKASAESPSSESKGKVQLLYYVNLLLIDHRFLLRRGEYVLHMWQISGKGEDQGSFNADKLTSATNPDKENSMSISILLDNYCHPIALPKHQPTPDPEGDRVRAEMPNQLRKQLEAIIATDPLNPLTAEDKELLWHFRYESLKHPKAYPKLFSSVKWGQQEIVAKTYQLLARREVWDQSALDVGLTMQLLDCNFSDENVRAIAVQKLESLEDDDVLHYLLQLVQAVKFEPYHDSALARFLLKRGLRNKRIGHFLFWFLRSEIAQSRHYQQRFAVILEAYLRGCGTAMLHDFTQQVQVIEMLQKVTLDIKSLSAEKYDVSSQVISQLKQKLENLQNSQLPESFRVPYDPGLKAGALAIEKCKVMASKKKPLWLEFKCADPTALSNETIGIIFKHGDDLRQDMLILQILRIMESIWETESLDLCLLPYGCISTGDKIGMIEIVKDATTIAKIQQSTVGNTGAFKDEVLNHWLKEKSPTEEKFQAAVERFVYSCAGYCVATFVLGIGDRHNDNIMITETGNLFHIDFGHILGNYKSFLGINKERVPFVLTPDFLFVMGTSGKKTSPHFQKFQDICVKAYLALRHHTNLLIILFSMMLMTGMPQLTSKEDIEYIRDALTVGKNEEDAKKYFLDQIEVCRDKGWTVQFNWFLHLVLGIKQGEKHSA
Sequence of MAP kinase-activated protein kinase 2 (P49137 whole entry, looked up): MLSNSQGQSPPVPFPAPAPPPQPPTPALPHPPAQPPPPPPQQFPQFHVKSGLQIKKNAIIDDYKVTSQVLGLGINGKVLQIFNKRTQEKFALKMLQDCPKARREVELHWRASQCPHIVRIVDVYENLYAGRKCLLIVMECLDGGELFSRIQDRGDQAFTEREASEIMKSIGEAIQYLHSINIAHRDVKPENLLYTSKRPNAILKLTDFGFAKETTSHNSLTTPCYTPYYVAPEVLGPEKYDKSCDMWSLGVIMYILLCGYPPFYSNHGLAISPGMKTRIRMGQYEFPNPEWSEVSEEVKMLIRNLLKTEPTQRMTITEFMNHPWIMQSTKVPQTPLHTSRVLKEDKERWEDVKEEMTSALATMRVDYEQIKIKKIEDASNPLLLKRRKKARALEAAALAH
Sequence of Aurora kinase B (Q96GD4 whole entry): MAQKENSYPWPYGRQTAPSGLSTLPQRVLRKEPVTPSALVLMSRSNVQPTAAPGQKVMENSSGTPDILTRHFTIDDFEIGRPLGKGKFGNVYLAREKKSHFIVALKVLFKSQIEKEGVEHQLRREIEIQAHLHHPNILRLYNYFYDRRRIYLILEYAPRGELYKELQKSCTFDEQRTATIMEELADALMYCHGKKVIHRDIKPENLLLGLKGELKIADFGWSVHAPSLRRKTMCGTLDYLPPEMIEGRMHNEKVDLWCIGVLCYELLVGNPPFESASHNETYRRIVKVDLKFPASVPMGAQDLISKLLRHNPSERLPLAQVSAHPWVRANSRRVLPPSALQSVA

% of inhibition ([1]; at 0.01 µM): 1% | % of inhibition ([1]; at 0.04 µM): -8.9% | % of inhibition ([1]; at 0.2 µM): -9.3% | % of inhibition ([1]; at 1 µM): 2.6% | % of inhibition ([1]; at 5 µM): 6.3% | % of inhibition [2]: -22.9%
SMILES: CC[C@@H]1[C@H](F)C(=O)N[C@@H]1COc1nccc2cc(C(N)=O)c(OC)cc12 [ZIMLOVISERTIB]

% of inhibition [3]: -10%
SMILES: CN1Cc2nccc(-c3cn(C)nc3-c3ccc(F)cc3)c2C1=O

% of control [4]: -2.67%
SMILES: Cn1cc(-n2cnc3c(NCc4nc5cc(Cl)c(Cl)cc5[nH]4)nc(N4CCOCC4)nc32)cn1

SMILES: COc1cc(N(C)c2ccnc3ccc(C(F)(F)F)cc23)cc(OC)c1OC
% binding [5]: 83%

SMILES: C=CC(=O)Nc1cc(-n2c(=O)ccc3cnc4ccc(-c5ccc(NS(C)(=O)=O)cc5)cc4c32)ccc1C
% of control ([6]; at 1 µM): 100% | % of control ([6]; at 10 µM): 8.7%

SMILES: N#Cc1cccc(-c2c[nH]c3ncnc(N4CCOCC4)c23)c1
% of control [7]: 33%

dTM [8]: -0.5 K
SMILES: CN(C(=O)c1cnn2cccnc12)c1cc2c(cc1N1CCOCC1)C(=O)N(C[C@@H](F)C(C)(C)O)C2

SMILES: CNC(=O)Nc1ccc(-c2nc(N3CC4CCC(C3)O4)c3cnn(C4CCC5(CC4)OCCO5)c3n2)cc1
% of control [9]: 92%

SMILES: O=C(NOC[C@H](O)CO)c1ccc(F)c(F)c1Nc1ccc(I)cc1F
% of control [10]: 96%
